Earlier results, collected in paper PMC11881343, “Safety of ilunocitinib tablets (Zenrelia™) after once daily oral administration in dogs” (BMC Veterinary Research, 2025).

Tests used:
JAK3 = test system: JAK3; set-up: method as in PMID 32413585; settings: cited from earlier work
[1] = test system: human patients with rheumatoid arthritis; set-up: method as in PMID 31362993; settings: human medicine; cited from earlier work
[2] = test system: peripheral blood leukocytes; settings: rheumatoid arthritis patients in phase III clinical trials; cited from earlier work
dogs = settings: cited from earlier work

For `CCS(=O)(=O)N1CC(CC#N)(n2cc(-c3ncnc4[nH]ccc34)cn2)C1` [baricitinib], which “potency against JAK3” value (JAK3) is on record?
The value was “significantly lower potency against JAK3”.

And the effect on hemoglobin [1]?
Its effect on hemoglobin is “initial decrease in hemoglobin within the normal range followed by a slight increase”.

And the “changes in lymphocytes subsets populations” value [2]?
The value was “minimal and reversible changes”.

For `CNS(=O)(=O)C[C@H]1CC[C@H](N(C)c2ncnc3[nH]ccc23)CC1` [oclacitinib], which “Weight gain in dogs” value (dogs; dogs) is on record?
The value was “Weight gain has been reported”.

What about the Papillomas in dogs (dogs; resorbed spontaneously) of the same molecule?
The Papillomas in dogs was “Papillomas were also observed”.

With `CC[C@@H]1CN(C(=O)NCC(F)(F)F)C[C@@H]1c1cnc2cnc3[nH]ccc3n12` [upadacitinib] as the molecule, how does the effect on hemoglobin [1] read?
The effect on hemoglobin was “limited impact on hemoglobin”.
